Data from US20240034743A9, “TRICYCLIC COMPOUNDS AS EGFR INHIBITORS” (QILU PHARMACEUTICAL CO., LTD., priority 2020, published 2024).
Where two headings read alike, the source gives them in different places.

Experiments:
[1] = biological target: EGFR WT (wild type EGFR) (Homo sapiens (Human), UniProt P00533); experiment: In vitro enzymatic TR-FRET (HTRF KinEASE-TK) kinase assay, EGFR WT; type: biochemical
Description: (I) In Vitro Enzymatic Experiment for EGFR WT and EGFR L858R/T790M/C797S
In the assay, the inhibition effect of the compound on the kinase activity of EGFR WT (wild type EGFR) and EGFR L858R/T790M/C797S was tested by adopting a time-resolved fluorescence resonance energy transfer (TR-FRET) method, and half maximal inhibitory concentration IC50 of the compound on the kinase activity of EGFR was obtained.
EGFR recombinase and EGFR L858R/T790M/C797S recombinase, purchased from Signalchem.
HTRF KinEASE-TK kit, purchased from Cisbio.
DTT, MnCl2, and MgCl2, purchased from Sigma.
ATP, purchased from Promega.
Brigatinib, purchased from Selleck.
1) 1× working solution was prepared: 5 mM MgCl2; 1 mM DTT; 1 mM MnCl2 and 1× kinase buffer (in kit).
2) […] of gradiently-diluted compound was transferred to a 384-well plate using Echo 550 (Labcyte).
3) 5 μL of 2× EGFR WT or EGFR L858R/T790M/C797S recombinase solution was added to the 384-well plate, and the plate was incubated at room temperature for 10 min.
4) 5 μL of 2× TK-substrate-biotin substrate solution (containing ATP) was added to the 384-well plate, and the plate was incubated at room temperature for 40 min.
5) 5 μL of assay solution containing Sa-XL 665 HTRF and 5 μL of TK-antibody-Cryptatewas were added to the plate, and the plate was incubated at room temperature for 1 h.
6) The fluorescence signal values at 615 nm and 665 nm were measured for each well using an Envision microplate reader (PerkinElmer).
7) The ratio of fluorescence signal values at 665 nm and 615 nm was calculated for each well.
8) Data analysis was performed using GraphPad Prism software to give the IC50 for compounds.

[2] = system: A431 cells (EGFR WT); experiment: A431 cell proliferation inhibition assay (CellTiter-Glo); type: cell-based; details: Homo sapiens
Procedure, shortened: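 CellTiter-Glo luminescence quantified growth after 72 h treatment with serially diluted compounds (final DMSO 0.1%), following a 24 h attachment period at 37° C, 5% CO2. Signal read after 30 min dark incubation at room temperature, with half-maximal growth inhibition reported as IC50.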

[3] = system: Ba/F3_Del19/T790M/C797S cells; experiment: Ba/F3_Del19/T790M/C797S cell proliferation inhibition assay (CellTiter-Glo); type: cell-based; details: Mus musculus
Procedure, shortened: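 IC50 for growth inhibition came from CellTiter-Glo chemiluminescence after a 72 h, 37° C compound exposure. Ba/F3_Del19/T790M/C797S cells were plated at 700/well, and compound was dosed in gradient with 0.1% final DMSO.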

[4] = system: Ba/F3_L858R/T790M/C797S cells; experiment: Ba/F3_L858R/T790M/C797S cell proliferation inhibition assay (CellTiter-Glo); type: cell-based; details: Mus musculus
Procedure, shortened: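 Proliferation IC50 derived from CellTiter-Glo luminescence in Ba/F3 cells expressing triple-mutant EGFR (L858R/T790M/C797S). Cells (700/well) incubated 72 h with graded compound doses at 0.1% DMSO final, 37 °C, 5% CO2; reagent developed 30 min at room temperature in the dark.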

[5] = kinase activity, TR-FRET, read-out: EGFR (WT) IC50
[6] = A-431, cell proliferation, 72 h, CellTiter-Glo, read-out: A431 EGFR WT IC50
[7] = BaF3, cell proliferation, 72 h, CellTiter-Glo, read-out: Ba/F3 (Del19/T790M/C797S) IC50
[8] = BaF3, cell proliferation, 72 h, CellTiter-Glo, read-out: Ba/F3 (L858R/T790M/C797S) IC50
[9] = A-431, 72 h, read-out: A431 EGFR WT IC50(nM)
[10] = BaF3, 72 h, read-out: Ba/F3 (Del19/T790M/C797S) IC50(nM)
[11] = BaF3, 72 h, read-out: Ba/F3 (L858R/T790M/C797S) IC50(nM)

EGFR WT (wild type EGFR), sequence (P00533 25-1210): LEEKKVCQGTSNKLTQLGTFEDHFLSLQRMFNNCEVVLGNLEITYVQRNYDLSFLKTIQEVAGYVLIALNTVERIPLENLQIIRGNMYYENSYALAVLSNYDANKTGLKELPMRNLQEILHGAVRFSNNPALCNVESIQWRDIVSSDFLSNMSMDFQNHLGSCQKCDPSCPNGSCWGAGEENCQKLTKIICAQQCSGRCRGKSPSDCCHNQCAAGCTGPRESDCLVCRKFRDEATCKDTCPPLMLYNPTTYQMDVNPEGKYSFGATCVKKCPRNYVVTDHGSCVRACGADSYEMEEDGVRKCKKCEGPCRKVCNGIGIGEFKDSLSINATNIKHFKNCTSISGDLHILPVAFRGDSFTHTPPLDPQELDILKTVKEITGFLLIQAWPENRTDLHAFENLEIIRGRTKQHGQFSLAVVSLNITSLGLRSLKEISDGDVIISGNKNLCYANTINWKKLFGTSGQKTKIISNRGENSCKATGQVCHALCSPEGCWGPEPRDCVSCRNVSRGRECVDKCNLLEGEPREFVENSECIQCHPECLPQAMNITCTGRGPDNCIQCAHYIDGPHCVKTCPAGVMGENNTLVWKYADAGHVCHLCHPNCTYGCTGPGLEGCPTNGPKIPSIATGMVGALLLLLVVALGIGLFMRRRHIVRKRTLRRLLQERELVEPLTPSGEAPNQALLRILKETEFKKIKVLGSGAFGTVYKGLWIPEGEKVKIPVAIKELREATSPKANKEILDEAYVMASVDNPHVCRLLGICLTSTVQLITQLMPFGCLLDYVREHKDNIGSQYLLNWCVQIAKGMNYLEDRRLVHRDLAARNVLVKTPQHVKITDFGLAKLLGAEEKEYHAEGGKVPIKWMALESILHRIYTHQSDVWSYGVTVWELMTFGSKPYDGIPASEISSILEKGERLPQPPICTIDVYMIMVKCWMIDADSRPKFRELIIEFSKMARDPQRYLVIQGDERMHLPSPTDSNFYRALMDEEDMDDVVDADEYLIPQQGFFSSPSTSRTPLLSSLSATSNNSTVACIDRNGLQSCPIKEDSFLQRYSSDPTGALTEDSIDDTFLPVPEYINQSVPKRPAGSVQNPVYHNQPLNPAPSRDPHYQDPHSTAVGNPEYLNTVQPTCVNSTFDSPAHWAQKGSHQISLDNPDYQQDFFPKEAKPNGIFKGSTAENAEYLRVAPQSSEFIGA

SMILES	IC50 [1, 5] [µM]	IC50 [2, 6] [nM]	IC50 [3, 7] [nM]	IC50 [4, 8] [nM]	IC50 [1] [µM]	IC50 [2, 9] [nM]	IC50 [3, 10] [nM]	IC50 [4, 11] [nM]
COc1cc2c(cc1Nc1nc(Nc3ccc4nccnc4c3P(C)(C)=O)c3sccc3n1)-c1cnn(C)c1CCN2C [Compound 61]	0.001 to 0.01	10 to 50	< 10	< 10				
COc1cc2c(cc1Nc1nc(Nc3ccccc3P(C)(C)=O)c3cc[nH]c3n1)-c1cnn(C)c1CCN2C [Compound 36]	0.001 to 0.01	100 to 1000	< 10	< 10				
CCN1CCc2c(cnn2C)-c2cc(Nc3ncc(C)c(Nc4ccccc4P(C)(C)=O)n3)c(OC)cc21 [Compound 19]	0.001 to 0.01	100 to 1000	< 10	10 to 50				
COc1cc2c(cc1Nc1nc(Nc3ccc4nccnc4c3P(C)(C)=O)c3cc[nH]c3n1)-c1cnn(C)c1CCN2C [Compound 60]	0.001 to 0.01	10 to 50	< 10	< 10				
COc1cc2c(cc1Nc1ncc(Br)c(Nc3ccc4nccnc4c3P(C)(C)=O)n1)-c1cnn(C)c1CCO2 [Compound 33]	0.001 to 0.01	50 to 100	< 10	< 10				
CCc1cnc(Nc2cc3c(cc2OC)N(C)CCc2c-3cnn2C)nc1Nc1ccccc1P(C)(C)=O [Compound 25]	0.001 to 0.01	100 to 1000	< 10	10 to 50				
COc1cc2c(cc1Nc1ncc(Br)c(Nc3ccc(F)cc3P(C)(C)=O)n1)-c1cnn(C)c1CCN2C [Compound 43]	0.001 to 0.01	50 to 100	< 10	< 10				
COc1nc2c(cc1Nc1ncc(Br)c(Nc3ccccc3P(C)(C)=O)n1)-c1cnn(C)c1CCN2 [Compound 51]	0.01 to 0.05	100 to 1000	< 10	10 to 50				
COc1cc2c(cc1Nc1ncc(Br)c(Nc3ccccc3P(C)(C)=S)n1)-c1cnn(C)c1CCN2C1CCN(C)CC1 [Compound 101]					0.001 to 0.01	100 to 1000	< 10	< 10
COc1cc2c(cc1Nc1ncc(Br)c(Nc3ccc4nccnc4c3P(C)(C)=O)n1)-c1cnn(C)c1CN(C)C2=O [Compound 9]	0.01 to 0.05	100 to 1000	10 to 50	10 to 50				
CCN1CCc2c(cnn2C)-c2cc(Nc3ncc(Br)c(Nc4ccccc4P(C)(C)=O)n3)c(OC)cc21 [Compound 20]	0.001 to 0.01	100 to 1000	< 10	< 10				
COc1cc2c(cc1Nc1ncc(Br)c(Nc3ccc4nccnc4c3P(C)(C)=O)n1)-c1cnn(C)c1CNC2 [Compound 71]	0.001 to 0.01	50 to 100	< 10	< 10				
COc1cc2c(cc1Nc1ncc(Br)c(Nc3ccccc3P(C)(C)=S)n1)-c1cnn(C)c1CCN2C1CCN(C(C)C)CC1 [Compound 105]					0.001 to 0.01	100 to 1000	< 10	10 to 50
COc1cc2c(cc1Nc1ncc(Br)c(Nc3ccc4nccnc4c3P(C)(C)=O)n1)-c1cnn(C)c1CCN2C(C)C [Compound 6]	0.001 to 0.01	100 to 1000	< 10	< 10				
COc1cc2c(cc1Nc1ncc(Cl)c(Nc3ccccc3P(C)(C)=O)n1)-c1cnn(C)c1CCN2C [Compound 14]	0.001 to 0.01	100 to 1000	< 10	< 10				
COc1nc2c(cc1Nc1ncc(Br)c(Nc3ccc4nccnc4c3P(C)(C)=O)n1)-c1cnn(C)c1CCN2 [Compound 52]	0.001 to 0.01	100 to 1000	< 10	< 10				
COc1cc2c(cc1Nc1ncc(Br)c(Nc3ccccc3P(C)(C)=O)n1)-c1cnn(C)c1CCN2C [Compound 2]	0.001 to 0.01	50 to 100	< 10	< 10				

The next lines start with results.

IC50 [1, 5] [µM]	IC50 [2, 6] [nM]	IC50 [3, 7] [nM]	IC50 [4, 8] [nM]	SMILES	IC50 [1] [µM]	IC50 [2, 9] [nM]	IC50 [3, 10] [nM]	IC50 [4, 11] [nM]
0.01 to 0.05	100 to 1000	10 to 50	10 to 50	COc1nc2c(cc1Nc1ncc(Br)c(Nc3ccccc3P(C)(C)=O)n1)-c1cnn(C)c1CCN2C [Compound 79]				
0.001 to 0.01	100 to 1000	< 10	10 to 50	COc1cc2c(cc1Nc1ncc(Br)c(Nc3ccncc3P(C)(C)=O)n1)-c1cnn(C)c1CCN2C(C)C [Compound 97]				
0.001 to 0.01	100 to 1000	< 10	10 to 50	COc1cc2c(cc1Nc1ncc(Br)c(Nc3ccc4nccnc4c3NS(C)(=O)=O)n1)-c1cn(C)nc1CCN2C(C)C [Compound 112]				
0.001 to 0.01	100 to 1000	< 10	< 10	COc1cc2c(cc1Nc1ncc(Br)c(Nc3ccccc3P(C)(C)=O)n1)-c1cnn(C)c1CCN2C1CCOCC1 [Compound 87]				
0.001 to 0.01	100 to 1000	10 to 50	50 to 100	COc1cc2c(cc1Nc1ncc(Cl)c(Nc3ccncc3P(C)(C)=O)n1)-c1cnn(C)c1CCN2C(C)C [Compound 95]				
0.001 to 0.01	100 to 1000	< 10	< 10	COc1cc2c(cc1Nc1ncc(Br)c(Nc3ccc4nccnc4c3P(C)(C)=O)n1)-c1cnn(C)c1CCN2C1CCN(C2CC(F)(F)C2)CC1 [Compound 96]				
0.001 to 0.01	> 1000	10 to 50	10 to 50	COc1cc2c(cc1Nc1ncc(Br)c(Nc3ccc4nccnc4c3N(C)S(C)(=O)=O)n1)-c1cnn(C)c1CCN2C(C)C [Compound 131]				
0.01 to 0.05	> 1000	10 to 50	10 to 50	COc1cc2c(cc1Nc1ncc(Br)c(Nc3cccc4c3NS(=O)(=O)C4)n1)-c1cnn(C)c1CCN2C(C)C [Compound 132]				
0.001 to 0.01	100 to 1000	10 to 50	10 to 50	CNC(=O)c1c(Nc2nc(Nc3cc4c(cc3OC)N(C(C)C)CCc3c-4cnn3C)ncc2Br)ccc2nccnc12 [Compound 129]				
0.001 to 0.01	100 to 1000	10 to 50	50 to 100	COc1cc2c(cc1Nc1ncc(Br)c(Nc3ccccc3P(C)(C)=O)n1)-c1cnn(C3CCN(C)CC3)c1CCN2C(C)C [Compound 75]				
